Experimental findings from PMC10299588, “Bromotyrosine-Derived Metabolites from a Marine Sponge Inhibit Pseudomonas aeruginosa Biofilms” (International Journal of Molecular Sciences, 2023) are described below.

Holding throughout (format): cell-based, Pseudomonas aeruginosa
Series [1] has as its system planktonic P. aeruginosa PAO1. Description: Minimum inhibitory concentration (MIC) determination. To be noted: Pseudomonas aeruginosa; planktonic (free-living) PAO1, LB medium, 18 h, 37 °C. As to the method: The minimum inhibitory concentration (MIC) of compounds and antibiotics were performed as previously described, with minor modification. […] Three antibiotics, including tobramycin, ciprofloxacin, and meropenem, were dissolved in water and filter sterilized. Ten microliters of two-fold serially diluted antibiotics were transferred to a 96-well Costar plate (Corning Inc., Corning, MA, USA) followed by the addition of 90 µL of diluted cultures. After an 18-h incubation at 37 °C in the static condition, optical density OD600 was monitored using a Synergy 2 microplate reader (BioTek, Winooski, VT, USA). […] The MIC was determined as the lowest concentrations of antibiotics that inhibit complete bacterial growth compared to growth control.

In series [2] the test system is PAO1ΔpelF (Pel deletion mutant). Nature of the series: Biofilm inhibition assay (OD600 growth and resazurin biofilm viability). To be noted: ciprofloxacin alone, sub-MIC. The method, then: (§1) Figure 2 Biofilm assays to identify compounds that prevent biofilm formation. Biofilm inhibition assay. P. aeruginosa cultures were seeded into 384-well plates after dispensing compounds and antibiotics. The plates were incubated for 24 h at 37 °C followed by recording bacterial growth (OD600) and measuring the viability of biofilm bacteria using resazurin.
(§2) The overnight cultures at 37 °C in LB medium were washed once with sterile saline 0.9% (w/v) and adjusted to an OD600 of 0.05, and 1% inoculum was transferred into a fresh LB medium. Following incubation at 37 °C, 200 rpm for 6–6.5 h to reach the mid-log phase, the cells were washed once with sterile saline 0.9% and diluted to an OD600 of 0.01. Then, 45 µL aliquots were dispensed into 384-well plates (Greiner Bio-One, Kremsmünster, Austria, catalog no. 781091). In biofilm inhibition assays, test compounds (5 µL) were loaded prior to the addition of bacteria. The plates were incubated for 24 h at 37 °C in static conditions. The effects of compounds on bacterial growth and viability of biofilm bacteria were determined by the OD600 and resazurin metabolic assay, respectively. The final concentrations of DMSO in the assays were 1–2%. The negative controls or untreated cultures consisted of inoculum and different concentrations of DMSO. Antibiotic ciprofloxacin (0.25 µg/mL and 25 µg/mL) was used as positive controls. The initial OD600 and final OD600 were read before incubation at 37 °C and after 24 h incubation, respectively, followed by assessment of biofilm viability by resazurin metabolic assay. The experiments were carried out with three technical replicates and repeated at least twice. The growth inhibition was calculated as a function of the percentage of the total bacterial inhibition using Equation (1), where AB is the OD600 of LB medium, and AT0 and ATf are the OD600 recorded at inoculating time and at the end of the assay. (1) % Inhibition=100 × [ 1 − [OD600 (Asample Tf− Asample T0)−(AB Tf − AB T0)/OD600 (Anegative control Tf− Anegative control T0)−(AB Tf − AB T0)]]
(§3) Resazurin sodium salt (Sigma-Aldrich, St. Louis, MI, USA) was dissolved in Milli-Q water at 0.2% (w/v) and filter sterilized. The solution was stored at −20 °C in the dark. The assay was performed as previously described with modification. The cultures were withdrawn, and the plates were washed three times with sterile water using the plate washer (BioTek). To remove the remaining water in the wells, the plates were tapped with autoclaved paper towels. An amount of 50 µL of diluted RSZ solution in LB medium was added into each well, followed by incubation at 37 °C for 5–6 h. A microplate reader (BioTek Synergy 2) was used to measure the fluorescence intensity (excitation 530 nm, emission 590 nm). Data collected were determined as a function of fluorescence percentage using Equation (2), where FB is the fluorescence of the diluted RSZ solution in LB medium in the absence of P. aeruginosa cells. (2) % Inhibition=[(Fnegative control −FB )−(Fsample −FB )/(Fnegative control − FB )]×100

The subject of series [3] is PAO1ΔpslA (Psl deletion mutant). The series is described as above. The method, then:
as §1, §2, §3

Another series relates to PDO300 biofilms. Nature of the series: Fluorescence microscopy of biofilms (SYTO9/propidium iodide). As to the method:
(§4) Biofilms of wild-type PAO1 and isogenic biofilm matrix component mutants were treated with ianthelliformisamines or ciprofloxacin alone and the combinations. Their biofilms were simultaneously stained with SYTO9 (green) and propidium iodide (red). Cells with intact membranes were stained green, while cells with compromised membranes were stained red.
(§5) For biofilm bacteria imaging, bacteria were cultured, treated with test compounds, and washed, as previously mentioned in the biofilm inhibition assay. The biofilm bacteria were stained using a LIVE/DEAD BacLight bacterial viability kit (Molecular Probes, Inc., Eugene, OR, USA), which consists of SYTO9 (green; staining cells with intact membrane) and propidium iodide (red; staining cells with compromised membrane). Images were captured using a high-content imaging system Operetta CLS (Perkin Elmer, Waltham, MA, USA) with a 60× water-immersion objective.

The next series concerns PDO300Δalg8 biofilms. Described as above. As to the method:
as §4, §5

For the next series, the system named is PAO1 biofilms. The description is as above. As to the method: as §4, §5
The next series concerns PAO1ΔpslA biofilms. The description is as above. The settings on record: alone. As to the method: as §4, §5
For another series, the system named is PAO1ΔpelF biofilms. The method, then: as §4, §5
The test system of series [4] is DNA damage reporter strain MDM-623. Description: Cellular bioluminescent assay (DNA damage reporter). The settings on record: 8 h; ciprofloxacin at 0.0625, 0.083, 0.25 and 25 µg/mL. An excerpt:
Ciprofloxacin, a fluroquinolone antibiotic, has been extensively utilized to treat various bacterial infections. It targets bacterial DNA topoisomerase and DNA gyrase, which produce breakage of double-stranded DNA, ultimately leading to cell death. […] In the effort of identifying the mechanisms of action of test compounds, we employed a DNA damage reporter strain MDM-623, which was constructed based on the promoter-luciferase reporter gene. The increased luminescence readouts are indicative of gyrase inhibition-induced promoter upregulation through the recA pathway. […] Nevertheless, there was no difference in the response of MDM-623 upon exposure to test compounds and the solvent (Figure 5E). The above results may imply that test compounds are unlikely to be DNA gyrase inhibitors and that their mechanism of action is unrelated to that of ciprofloxacin.
The reporter strain MDM-623 was kindly provided by Dr. Timothy Opperman (Microbiotix, Inc., Worcester, MA, USA). The strain harbors a promoter region from PA0614 fused to Photorhabdus luminescens luciferase luxCDABE operon, which was constructed to respond to DNA damage. All experiments were carried out as previously described with minor modification. […] Luminescence was monitored using a BioTek Synergy H1 Hybrid microplate reader for 8 h at 30-min intervals. […]

Series [5] relates to outer membrane of wild-type PAO1 cells. Nature of the series: NPN uptake assay (outer membrane permeability). To be noted: PAO1 pre-treated with 100 µM CCCP, 30 min; polymyxin B at 6.4 and 10 µg/mL. The method, then: The effect of ianthelliformisamines on the permeability of the outer membrane was determined using an NPN uptake assay. NPN (1-N-phenylnapthylamine), a hydrophobic fluorescent probe, is excluded from the intact outer membranes of Gram-negative bacteria such as P. aeruginosa. It intensely fluoresces once it gains access to the phospholipid layer of membrane-compromised cells (Figure 5A). The experiments were conducted with different concentrations of ianthelliformisamines and sub-inhibitory doses of ciprofloxacin. […] The level of fluorescence intensity in bacteria challenged with test compounds, even at highest testing concentrations, resembled that in cells treated with DMSO.
The permeability of the outer membrane upon exposure to test compounds was assessed using a 1-N-phenylnapthylamine (NPN) uptake assay. An overnight culture of PAO1 was grown to an OD600 of 0.5, centrifuged, washed with HEPES buffer (5 mM, pH 7.2), and re-suspended in HEPES buffer containing 100 µM CCCP. […] Ninety microliters of the cell suspension were added to the flat-bottomed, black 96-well plate containing 10 µL of test compounds, and the NPN fluorescence was immediately monitored using a BioTek Synergy H1 Hybrid microplate reader at an excitation of 350 nm and an emission of 420 nm every min for 30 min. […]

Entries after “also recorded” stand apart in the source; their conditions may differ.

Usually MIC stands for the least concentration at which growth counts as inhibited. In the case of `O=C(O)c1cn(C2CC2)c2cc(N3CCNCC3)c(F)cc2c1=O` [ciprofloxacin, reference compound], the MIC in [1] stood at 0.25 µg/mL. Besides, the “biofilm response (reduction)” value in series [2] was ~ 60%. Besides, the bacterial growth inhibition result in series [3] (alone at 1/3 MIC) is listed as “moderately inhibited”. Further, the “prevention of biofilm formation” value in series [3] (alone at 1/3 MIC) was “completely prevented”. The “reduction of bacterial growth” value in series [3] (alone at 1/3 and 1/4 MIC) is reported as > 40%. For the same molecule, in series [3] (alone at 1/3 and 1/4 MIC), the “suppression of biofilm formation” value is given as ~ 100%. Besides, in series [3] (sub-lethal doses (1/3, 1/4 MIC) alone), the “effect on survival of suspended cells” value is ~ 50%. Besides, the cell phenotype result in the series with PDO300 biofilms is listed as “long, filamentous phenotypes as well as small, round spheroplasts”; in the series with PDO300Δalg8 biofilms, “long, filamentous phenotypes as well as small, round spheroplasts”; with PAO1 biofilms, “long, filamentous phenotypes as well as small, round spheroplasts”; in the series with PAO1ΔpelF biofilms, “long, filamentous phenotypes as well as small, round spheroplasts”. The biofilm after treatment entry in the series on PAO1ΔpslA biofilms is on record as “unable to form biofilms; also recorded: eradicated”. Besides, the “luminescence response of DNA damage reporter (gyrase inhibition)” value in [4] is “steadily enhanced”.
Take `C[C@@H](O)[C@H]1C(=O)N2C(C(=O)O)=C(S[C@@H]3CN[C@H](C(=O)N(C)C)C3)[C@H](C)[C@H]12` [meropenem, reference compound]: in series [1], the MIC turned out to be 0.375 µg/mL.
The same measure, in the same setting: under `NC[C@H]1O[C@H](O[C@H]2[C@H](O)[C@@H](O[C@H]3O[C@H](CO)[C@@H](O)[C@H](N)[C@H]3O)[C@H](N)C[C@@H]2N)[C@H](N)C[C@@H]1O` [tobramycin, reference compound] stands 2 µg/mL.
In the case of polymyxin B, the “outer membrane permeabilization (NPN fluorescence)” value in series [5] is listed as “prominent fluorescence”.
